Data reported in patent US9440933B2, “Azole derivative, method for producing same, intermediate compound, and agricultural or horticultural chemical agent and industrial material protecting agent” (KUREHA CORPORATION, priority 2011, dated 2016).

What was measured:
[1] = system: wheat leaf rust-causing microbe; experiment: Wheat leaf rust-controlling activity (foliar spray, pot test); type: in vivo, Puccinia recondita; conditions: Concentration 25 g/ha; wettable powder sprayed on wheat (Norin No. 61), 9 to 14 days after inoculation
[2] = system: Cucumber Fusarium wilt-causing microbe (Fusarium oxysporum); experiment: Antimicrobial activity to various pathogenic microbes: F.c; conditions: 50 mg/L
Experimental: (§1) An inventive compound was dissolved in dimethylsulfoxide 2 ml. The solution 0.6 ml was added to a PDA medium (potato-dextrose-agar medium) 60 ml at around 60° C.
(§2) A flat plate containing a test microbe (wheat leaf blight-causing microbe) cultured separately was punched into pieces with a cork borer having a diameter of 4 mm and the circular plate obtained was placed on the flat plate media containing the chemical described above. The plates were cultured at 25° C. for 14 days after inoculation and the diameter of the microbial colony was determined. Hyphal expansion-inhibiting rate was calculated according to the following equation: R=100(dc−dt)/dc (wherein, R: hyphal expansion-inhibiting rate (%), dc: diameter of microbial colony on non-treated flat plate, dt: diameter of microbial colony on chemically-treated flat plate).
(§3) The results thus obtained were evaluated in 5 stages according to the criteria below:

[3] = system: Wheat eye spot-causing microbe (Pseudocercoporella herpotrichoides); experiment: Antimicrobial activity to various pathogenic microbes: P.h; conditions: 50 mg/L
Experimental: as §1
(§4) The plates were cultured at 25° C. for 14 days after inoculation and the diameter of the microbial colony was determined. Hyphal expansion-inhibiting rate was calculated according to the following equation: R=100(dc−dt)/dc (wherein, R: hyphal expansion-inhibiting rate (%), dc: diameter of microbial colony on non-treated flat plate, dt: diameter of microbial colony on chemically-treated flat plate).
as §3
Wheat eye spot-causing microbe (Pseudocercoporella herpotrichoides) P.h

[4] = system: Gray mold-causing microbe (Botrytis cinerea); experiment: Antimicrobial activity to various pathogenic microbes: B.c; conditions: 50 mg/L
Experimental: as §1, §2
(§5) In this Test Example, the antimicrobial activity of the inventive compounds to various plant disease-causing fungi and industrial material-eroding microorganisms was studied by the method described in Example 1.
as §3
Gray mold-causing microbe (Botrytis cinerea) B.c

[5] = system: Barley loose smut-causing microbe (Ustilago nuda); experiment: Antimicrobial activity to various pathogenic microbes: U.n; conditions: 50 mg/L
Experimental: as §1, §4, §3
Barley loose smut-causing microbe (Ustilago nuda) U.n

[6] = system: Apple alternaria blotch-causing microbe (Alternaria alternata); experiment: Antimicrobial activity to various pathogenic microbes: A.m; conditions: 50 mg/L
Experimental: as §1, §2, §5, §3
Apple alternaria blotch-causing microbe (Alternaria alternata) A.m

[7] = system: Rice blast-causing microbe (Pyricularia oryzae); type: cell-based; conditions: 50 mg/L
[8] = system: Barley scald-causing microbe (Rhynchosporium secalis); experiment: Antimicrobial activity to various pathogenic microbes: R.sec; conditions: 50 mg/L
Experimental: as §1, §2, §5, §3
Barley scald-causing microbe (Rhynchosporium secalis) R.sec

[9] = system: wheat powdery mildew-causing microbes; experiment: Controlling activity to wheat powdery mildew of seed treatment (pot test); type: in vivo, Erysiphe graminis f. sp tritici; conditions: 2 mg in DMSO applied to wheat seeds 1 g, 14 to 28 days after seeding
Experimental: Controlling activity to wheat powdery mildew was examined in a pot test. Each of the inventive compounds […]-53, and a comparative compound (1) was weighed in an amount of 2 mg and dissolved in DMSO (18 μl). The solution thus prepared was applied to wheat seeds 1 g in a vial, 8 wheat seeds were seeded in a 80 cm^2 pot. The wheat was grown, as water was supplied from blow, in a greenhouse where wheat powdery mildew-causing microbes are present abundantly. The incidence rate was determined and the controlling rate and additionally the controlling index calculated 14 to 28 days after seeding. The controlling rate was calculated and the wheat powdery mildew controlling index determined according to the following equation: Controlling rate=(1-Incidence rate in treated region/Incidence rate in non-treated region)×100(%) [table]

[10] = system: Wheat fusarium blight-causing microbe (Fusarium graminearum); type: cell-based; conditions: 50 mg/L
[11] = system: wheat leaf blight-causing microbe; experiment: Antimicrobial activity to wheat leaf blight-causing microbe (PDA plate, hyphal expansion inhibition); type: cell-based, Septoria tritici; conditions: PDA medium, 25° C., 14 days; for inhibition at 50 µg/mL / inhibition at 1.25 µg/mL: 336 h; for inhibition at 50 µg/mL: read-out: Growth inhibition; for inhibition at 1.25 µg/mL: test sample concentration 1.25 mg/L, read-out: hyphal expansion-inhibiting rate
Experimental: In this Test Example, antimicrobial activity of the inventive compounds to wheat leaf blight-causing microbe was determined and compared with that of the comparative compound (1).

wheat = experiment: Damage to wheat (growth inhibition) by seed treatment (pot test); conditions: 2 mg in DMSO applied to wheat seeds 1 g, 14 to 28 days after seeding, larger index = smaller damage
[12] = system: Wheat glume blotch-causing microbe (Phaeosphaeria nodorum); experiment: Antimicrobial activity to various pathogenic microbes: P.n; conditions: 50 mg/L
Experimental: as §1, §2, §5, §3
Wheat glume blotch-causing microbe (Phaeosphaeria nodorum) P.n

[13] = system: Rice bakanae disease-causing microbe (Gibberella fujikuroi); experiment: Antimicrobial activity to various pathogenic microbes: G.f; conditions: 50 mg/L
Experimental: as §1, §2, §3

[14] = system: Sclerotinia rot-causing microbe (Sclerotinia sclerotiorum); experiment: Antimicrobial activity to various pathogenic microbes: S.s; conditions: 50 mg/L
Experimental: as §1, §2, §3
Sclerotinia rot-causing microbe (Sclerotinia sclerotiorum) S.s

Structure (SMILES)	Controlling index [1]	Growth inhibition (hyphal expansion-inhibiting rate grade) F.c [2]	Growth inhibition (hyphal expansion-inhibiting rate grade) P.h [3]	Growth inhibition (hyphal expansion-inhibiting rate grade) B.c [4]	Growth inhibition (hyphal expansion-inhibiting rate grade) U.n [5]	Growth inhibition (hyphal expansion-inhibiting rate grade) A.m [6]	Growth inhibition (hyphal expansion-inhibiting rate grade) P.o [7]	Growth inhibition (hyphal expansion-inhibiting rate grade) R.sec [8]	Controlling index Wheat powdery mildew [9]	Growth inhibition (hyphal expansion-inhibiting rate grade) F.g [10]	inhibition at 50 µg/mL ([11]; Concentration 50 mg/L)	inhibition at 1.25 µg/mL [11]	Damage index Growth inhibition (wheat)	Growth inhibition (hyphal expansion-inhibiting rate grade) P.n [12]	Growth inhibition (hyphal expansion-inhibiting rate grade) G.f [13]	Growth inhibition (hyphal expansion-inhibiting rate grade) S.s [14]	Growth inhibition ([11]; Concentration 50 mg/L)
CCCOC(=O)[C@]1(C)CC[C@@H](Cc2ccc(Cl)cc2)[C@]1(O)Cn1cncn1 (racemic) [Compound I-6, n-propyl-(1RS,2RS,3SR)-3-(4-chlorobenzyl)-2-hydroxy-1-methyl-2-(1H-1,2,4-triazol-1-ylmethyl)cyclopentanecarboxylate]	5 (81 to 100)	5 (hyphal expansion-inhibiting rate: 80% or more)	5 (hyphal expansion-inhibiting rate: 80% or more)	5 (hyphal expansion-inhibiting rate: 80% or more)	5 (hyphal expansion-inhibiting rate: 80% or more)	5 (hyphal expansion-inhibiting rate: 80% or more)	5 (hyphal expansion-inhibiting rate: 80% or more)	5 (hyphal expansion-inhibiting rate: 80% or more)	5 (Controlling rate: 40 or more)	5 (hyphal expansion-inhibiting rate: 80% or more)	> 80%	≥ 80%	3 (20% or more and less than 40%)	5 (hyphal expansion-inhibiting rate: 80% or more)	5 (hyphal expansion-inhibiting rate: 80% or more)	5 (hyphal expansion-inhibiting rate: 80% or more)	–
CCOC(=O)[C@]1(C)CC[C@H](Cc2ccc(Cl)cc2)[C@@]1(O)Cn1cncn1 (racemic) [Compound I-133, ethyl-(1RS,2SR,3RS)-3-(4-chlorobenzyl)-2-hydroxy-1-methyl-2-(1H-1,2,4-triazol-1-ylmethyl)cyclopentanecarboxylate]	5 (81 to 100)	5 (hyphal expansion-inhibiting rate: 80% or more)	5 (hyphal expansion-inhibiting rate: 80% or more)	5 (hyphal expansion-inhibiting rate: 80% or more)	5 (hyphal expansion-inhibiting rate: 80% or more)	5 (hyphal expansion-inhibiting rate: 80% or more)	5 (hyphal expansion-inhibiting rate: 80% or more)	5 (hyphal expansion-inhibiting rate: 80% or more)	5 (Controlling rate: 40 or more)	5 (hyphal expansion-inhibiting rate: 80% or more)	> 80%	–	4 (1% or more and less than 20%)	5 (hyphal expansion-inhibiting rate: 80% or more)	5 (hyphal expansion-inhibiting rate: 80% or more)	5 (hyphal expansion-inhibiting rate: 80% or more)	–
COC(=O)[C@]1(C)CC[C@H](Cc2ccc(F)cc2)[C@@]1(O)Cn1cncn1 (racemic) [Compound I-53, methyl-(1RS, 2SR,3RS)-3-(4-fluorobenzyl)-2-hydroxy-1-methyl-2-(1H-1,2,4-triazol-1-ylmethyl)cyclopentanecarboxylate]	5 (81 to 100)	5 (hyphal expansion-inhibiting rate: 80% or more)	5 (hyphal expansion-inhibiting rate: 80% or more)	5 (hyphal expansion-inhibiting rate: 80% or more)	5 (hyphal expansion-inhibiting rate: 80% or more)	5 (hyphal expansion-inhibiting rate: 80% or more)	5 (hyphal expansion-inhibiting rate: 80% or more)	5 (hyphal expansion-inhibiting rate: 80% or more)	5 (Controlling rate: 40 or more)	5 (hyphal expansion-inhibiting rate: 80% or more)	> 80%	≥ 80%	1 (60% or more and less than 80%)	5 (hyphal expansion-inhibiting rate: 80% or more)	5 (hyphal expansion-inhibiting rate: 80% or more)	5 (hyphal expansion-inhibiting rate: 80% or more)	–
COC(=O)[C@]1(C)CC[C@H](Cc2ccc(Cl)cc2)[C@@]1(O)Cn1cncn1 (racemic) [Compound I-132, methyl-(1RS,2SR,3RS)-3-(4-chlorobenzyl)-2-hydroxy-1-methyl-2-(1H-1,2,4-triazol-1-ylmethyl)cyclopentanecarboxylate]	5 (81 to 100)	5 (hyphal expansion-inhibiting rate: 80% or more)	5 (hyphal expansion-inhibiting rate: 80% or more)	5 (hyphal expansion-inhibiting rate: 80% or more)	5 (hyphal expansion-inhibiting rate: 80% or more)	5 (hyphal expansion-inhibiting rate: 80% or more)	5 (hyphal expansion-inhibiting rate: 80% or more)	5 (hyphal expansion-inhibiting rate: 80% or more)	5 (Controlling rate: 40 or more)	5 (hyphal expansion-inhibiting rate: 80% or more)	> 80%	–	5	5 (hyphal expansion-inhibiting rate: 80% or more)	5 (hyphal expansion-inhibiting rate: 80% or more)	5 (hyphal expansion-inhibiting rate: 80% or more)	–
CNC(=O)[C@]1(C)CC[C@H](Cc2ccc(Cl)cc2)[C@@]1(O)Cn1cncn1 (racemic) [Compound I-148, N-methyl-(1RS,2SR,3RS)-3-(4-chlorobenzyl)-2-hydroxy-1-methyl-2-(1H-1,2,4-triazol-1-ylmethyl)cyclopentane carboxyamide]	5 (81 to 100)	5 (hyphal expansion-inhibiting rate: 80% or more)	5 (hyphal expansion-inhibiting rate: 80% or more)	5 (hyphal expansion-inhibiting rate: 80% or more)	5 (hyphal expansion-inhibiting rate: 80% or more)	5 (hyphal expansion-inhibiting rate: 80% or more)	5 (hyphal expansion-inhibiting rate: 80% or more)	5 (hyphal expansion-inhibiting rate: 80% or more)	5 (Controlling rate: 40 or more)	5 (hyphal expansion-inhibiting rate: 80% or more)	–	–	5	5 (hyphal expansion-inhibiting rate: 80% or more)	5 (hyphal expansion-inhibiting rate: 80% or more)	5 (hyphal expansion-inhibiting rate: 80% or more)	5 (hyphal expansion-inhibiting rate: 80% or more)
